Results from patent US8076487B2, “Pyridone derivative and herbicide” (Kumiai Chemical Industry Co., Ltd., priority 2006, dated 2011).

Key:
Type in all cases: in vivo
[1] = test system: velvetleaf (Abutilon theophrasti medicus); test: Test Example 2: herbicidal effect by soil application to upland field; details: soil surface spray, upland field soil, 1,000 g active ingredient per hectare, 21st day after application
Experimental: (§1) [table] Test Example 2 Test on Herbicidal Effect by Soil Application to Upland field In a 80 cm2 plastic pot, field soil was filled. Seeds of barnyardgrass (Echinochloa crus-galli (L.) P. Beauv. var. crus-galli), green foxtail (Setaria viridis (L.) P. Beauv.), velvetleaf (Abutilon theophrasti medicus), and slender amaranth (Amaranthus viridis L.) were sown and covered with soils. The wettable powder prepared according to Formulation Example 1 was diluted in water and a 1,000 liter equivalent amount per 1 hectare so that the active ingredient becomes 1,000 g per 1 hectare was uniformly sprayed on a soil surface using a small sprayer. Then, on the 21st day after the application to the plants grew in a greenhouse, the herbicidal effect was examined in accordance with a standard shown in Table 34.

[2] = test system: barnyardgrass (Echinochloa crus-galli (L.) P. Beauv. var. crus-galli); test: as above; details: soil surface spray, upland field soil, 1,000 g active ingredient per hectare, 21st day after application
Experimental: as §1

[3] = test system: slender amaranth (Amaranthus viridis L.); test: as above; details: soil surface spray, upland field soil, 1,000 g active ingredient per hectare, 21st day after application
Experimental: as §1

[4] = test system: green foxtail (Setaria viridis (L.) P. Beauv.); test: as above; details: soil surface spray, upland field soil, 1,000 g active ingredient per hectare, 21st day after application
Experimental: as §1

[5] = test system: heartshape false pickerelweed (Monochoria vaginalis (Burm.f.) C.Presl); test: Test Example 1: herbicidal effect by soil application to paddy field; details: paddy field soil application; active ingredient 1,000 g per 1 hectare; wettable powder added dropwise to water surface the day after sowing; examined on the 21st day after application
Procedure, shortened: (§2)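 Plants were sown in flooded (3 cm) paddy soil and evaluated for herbicidal effect 21 days after soil application in a greenhouse.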

[6] = test system: early watergrass (Echinochloa oryzicola Vasing); test: as above; details: paddy field soil application; active ingredient 1,000 g per 1 hectare; wettable powder added dropwise to water surface the day after sowing; examined on the 21st day after application
Procedure, shortened: as §2

[7] = test system: Japanese bulrush (Scirpus juncoides Roxb.); test: as above; details: paddy field soil application; active ingredient 1,000 g per 1 hectare; wettable powder added dropwise to water surface the day after sowing; examined on the 21st day after application
Procedure, shortened: as §2

Row | Structure (SMILES) | herbicidal effect (index), Velvetleaf [1] | herbicidal effect (index), Barnyardgrass [2] | herbicidal effect (index), Slender Amaranth [3] | herbicidal effect (index), Green Foxtail [4] | herbicidal effect, Monochoria vaginalis (Burm. f.) C. Presl [5] | herbicidal effect, Echinochloa oryzicola Vasing [6] | herbicidal effect, Scirpus juncoides Roxb. [7]
1 | C#CCOc1c(C(=O)c2ccc(C(F)(F)F)n(C)c2=O)cnn1C [IV-189] | 4 (70 to less than 90% of herbicidal effect and crop phytotoxicity) | 5 (90% or more of herbicidal effect and crop phytotoxicity) | 5 (90% or more of herbicidal effect and crop phytotoxicity) | 4 (70 to less than 90% of herbicidal effect and crop phytotoxicity) | 5 (90% or more of herbicidal effect and crop phytotoxicity) | 5 (90% or more of herbicidal effect and crop phytotoxicity) | 5 (90% or more of herbicidal effect and crop phytotoxicity)
2 | CN(c1ccccc1)n1c(C(F)(F)F)ccc(C(=O)C2=C(O)CCCC2=O)c1=O [I-182] | 5 (90% or more of herbicidal effect and crop phytotoxicity) | 5 (90% or more of herbicidal effect and crop phytotoxicity) | 5 (90% or more of herbicidal effect and crop phytotoxicity) | 4 (70 to less than 90% of herbicidal effect and crop phytotoxicity) | 5 (90% or more of herbicidal effect and crop phytotoxicity) | 5 (90% or more of herbicidal effect and crop phytotoxicity) | 5 (90% or more of herbicidal effect and crop phytotoxicity)
3 | O=C(C1=C(O)C2CCC(C2)C1=O)c1ccc(C(F)(F)F)n(-c2c(F)cccc2F)c1=O (stereo not drawn) [III-37] | 5 (90% or more of herbicidal effect and crop phytotoxicity) | 4 (70 to less than 90% of herbicidal effect and crop phytotoxicity) | 4 (70 to less than 90% of herbicidal effect and crop phytotoxicity) | 4 (70 to less than 90% of herbicidal effect and crop phytotoxicity) | 5 (90% or more of herbicidal effect and crop phytotoxicity) | 5 (90% or more of herbicidal effect and crop phytotoxicity) | 4 (70 to less than 90% of herbicidal effect and crop phytotoxicity)
4 | O=C1CCCC(O)=C1C(=O)c1ccc(C(F)(F)F)n(NCCCCl)c1=O [I-167] | 5 (90% or more of herbicidal effect and crop phytotoxicity) | 5 (90% or more of herbicidal effect and crop phytotoxicity) | 5 (90% or more of herbicidal effect and crop phytotoxicity) | 5 (90% or more of herbicidal effect and crop phytotoxicity) | 5 (90% or more of herbicidal effect and crop phytotoxicity) | 5 (90% or more of herbicidal effect and crop phytotoxicity) | 5 (90% or more of herbicidal effect and crop phytotoxicity)
5 | CCCS(=O)(=O)Oc1c(C(=O)c2ccc(C(F)(F)F)n(-c3ccccc3)c2=O)c(C)nn1C [IV-237] | 4 (70 to less than 90% of herbicidal effect and crop phytotoxicity) | 4 (70 to less than 90% of herbicidal effect and crop phytotoxicity) | 5 (90% or more of herbicidal effect and crop phytotoxicity) | 4 (70 to less than 90% of herbicidal effect and crop phytotoxicity) | 5 (90% or more of herbicidal effect and crop phytotoxicity) | 5 (90% or more of herbicidal effect and crop phytotoxicity) | 5 (90% or more of herbicidal effect and crop phytotoxicity)
6 | CCCS(=O)(=O)Oc1c(C(=O)c2ccc(C(F)(F)F)n(-c3ccc(F)c(COC)c3)c2=O)cnn1C [IV-94] | 5 (90% or more of herbicidal effect and crop phytotoxicity) | 5 (90% or more of herbicidal effect and crop phytotoxicity) | 5 (90% or more of herbicidal effect and crop phytotoxicity) | 4 (70 to less than 90% of herbicidal effect and crop phytotoxicity) | 5 (90% or more of herbicidal effect and crop phytotoxicity) | 5 (90% or more of herbicidal effect and crop phytotoxicity) | 5 (90% or more of herbicidal effect and crop phytotoxicity)
7 | CCCS(=O)(=O)Oc1c(C(=O)c2ccc(C(F)(F)F)n(-c3cc(F)cc(F)c3)c2=O)c(C)nn1C [IV-82] | 5 (90% or more of herbicidal effect and crop phytotoxicity) | 5 (90% or more of herbicidal effect and crop phytotoxicity) | 4 (70 to less than 90% of herbicidal effect and crop phytotoxicity) | 4 (70 to less than 90% of herbicidal effect and crop phytotoxicity) | 5 (90% or more of herbicidal effect and crop phytotoxicity) | 5 (90% or more of herbicidal effect and crop phytotoxicity) | 3 (50 to less than 70% of herbicidal effect and crop phytotoxicity)
8 | CCCS(=O)(=O)Oc1c(C(=O)c2ccc(C(F)(F)F)n(-c3ccc(F)c(F)c3)c2=O)c(C)nn1C [IV-88] | 5 (90% or more of herbicidal effect and crop phytotoxicity) | 5 (90% or more of herbicidal effect and crop phytotoxicity) | 5 (90% or more of herbicidal effect and crop phytotoxicity) | 5 (90% or more of herbicidal effect and crop phytotoxicity) | 5 (90% or more of herbicidal effect and crop phytotoxicity) | 5 (90% or more of herbicidal effect and crop phytotoxicity) | 4 (70 to less than 90% of herbicidal effect and crop phytotoxicity)
9 | Cn1ncc(C(=O)c2ccc(C(F)(F)F)n(CC3CCCO3)c2=O)c1OC(=O)c1c(Cl)cc(Cl)cc1Cl (stereo not drawn) [IV-133] | 4 (70 to less than 90% of herbicidal effect and crop phytotoxicity) | 5 (90% or more of herbicidal effect and crop phytotoxicity) | 5 (90% or more of herbicidal effect and crop phytotoxicity) | 3 (50 to less than 70% of herbicidal effect and crop phytotoxicity) | 5 (90% or more of herbicidal effect and crop phytotoxicity) | 5 (90% or more of herbicidal effect and crop phytotoxicity) | 5 (90% or more of herbicidal effect and crop phytotoxicity)
10 | O=C1CCCC(O)=C1C(=O)c1ccc(C(F)(F)F)n(Cc2cc(Cl)nc(Cl)c2)c1=O [I-124] | 5 (90% or more of herbicidal effect and crop phytotoxicity) | 5 (90% or more of herbicidal effect and crop phytotoxicity) | 5 (90% or more of herbicidal effect and crop phytotoxicity) | 5 (90% or more of herbicidal effect and crop phytotoxicity) | 5 (90% or more of herbicidal effect and crop phytotoxicity) | 5 (90% or more of herbicidal effect and crop phytotoxicity) | 5 (90% or more of herbicidal effect and crop phytotoxicity)
11 | Cn1ncc(C(=O)c2ccc(C(F)(F)F)n(CC3CCCO3)c2=O)c1OC(=O)c1ccccc1 (stereo not drawn) [IV-131] | 4 (70 to less than 90% of herbicidal effect and crop phytotoxicity) | 4 (70 to less than 90% of herbicidal effect and crop phytotoxicity) | 5 (90% or more of herbicidal effect and crop phytotoxicity) | 3 (50 to less than 70% of herbicidal effect and crop phytotoxicity) | 5 (90% or more of herbicidal effect and crop phytotoxicity) | 5 (90% or more of herbicidal effect and crop phytotoxicity) | 5 (90% or more of herbicidal effect and crop phytotoxicity)
12 | Cn1c(C(F)(F)F)ccc(C(=O)C2=C(Sc3ccc(Cl)cc3Cl)CCCC2=O)c1=O [II-14] | 5 (90% or more of herbicidal effect and crop phytotoxicity) | 4 (70 to less than 90% of herbicidal effect and crop phytotoxicity) | 5 (90% or more of herbicidal effect and crop phytotoxicity) | 3 (50 to less than 70% of herbicidal effect and crop phytotoxicity) | 5 (90% or more of herbicidal effect and crop phytotoxicity) | 5 (90% or more of herbicidal effect and crop phytotoxicity) | 5 (90% or more of herbicidal effect and crop phytotoxicity)
